Where no end group is shown, it is not given here.

Test [1] concerns the target FGFR1B (Homo sapiens, UniProt P11362). The experiment in a line: SPR detection of interaction with FGFR1B in presence of bFGF. The format is binding. The method, then: Amino acid sequence of P9 degraded short peptide P48 was analyzed using Amber11 program. An initial structure of the P9 and P48 peptide chains was constructed using a sequence command in a Tleap module of the Amber11 program. Hydrogen atoms were added using the Tleap module of the Amber11 program, a […] TIP3P solvent box was added at a distance of 10 Å from the peptide chain, and counter ions were added to the two systems to keep the system electrically neutral. The system was subjected to 20-ns NPT system simulation to obtain an optimal spatial structure. […] The experimental procedure was as follows: the plasma was centrifuged and the supernatant was removed, and 60 μl of peptide was added to incubate for different lengths of time (P9 was incubated for 5, 10, 15, 20, 25, 30 and 45 min; P48 was incubated for 1, 2, 3, 4, 5, 10 and 12 h), and the incubation was terminated with 200 μl of 5% glacial acetic acid. Solid phase extraction: activation was conducted with 1.5 ml of methanol, an obtained product was washed with 1.5 ml of H2O, 400 μl of a sample was loaded, washed with 1 ml of H2O, and elution was conducted with 2 ml of 30% acetonitrile to collect samples, and the samples were freeze-dried and subjected to liquid chromatography analysis. […] The last 1 ns of trajectory obtained by molecular dynamics simulation of the system was selected to calculate the binding free energy, the molecules of the solvent of water and counter ion were deleted, and conformation was recorded every 10 ps to obtain a total of 101 structures. The binding free energy between FGF2 and FGFR1 were calculated by a molecular mechanics-generalized born surface area (MM-GBSA) method. The binding free energy and energy decomposition of amino acid residues were calculated using an MMPBA.py script provided by the Amber11. […] After bFGF and FGFR1 flew into the sensor chip, P48 (50 μM, 100 μM, 200 μM, 300 μM and 400 μM) was injected into a sensor surface, and the obtained data was analyzed using BIAevaluation software.

In test [2] the target is FGFR1 (Mus musculus, UniProt P16092). Put plainly: Western blot of bFGF-induced FGFR1 activation in MEF-WT fibroblasts. Details: endogenous in cells; host or cells: MEF-WT; Balb/c 3T3. The format is cell-based. Conditions: P48 pretreatment 10 min, bFGF 15 min. The method, then:
Human embryonic kidney cells HEK-293, fibroblasts MEF-WT and Balb/c 3T3 were inoculated into 6-well plates, respectively. After growing adherently overnight, the cells were pretreated with P48 for 10 min or with AZD4547/PD173074/SSR for 2 h, and incubated with bFGF for 15 min. […] The experimental procedure was as follows: MEF-WT and MEFKO (FGFR1-FGFR2-FRS2a) cells (1×10^6 cells/ml) were inoculated in a 35 mm petri dish. After being adhered to the wall of petri dish overnight, the cells were washed with PBS; FITC-conjugated P48 (1, 10, 100 and 1000 nM) was added, and the cells were incubated in an incubator for 30 min. The cells were immobilized with 1% paraformaldehyde in the dark and washed with PBS. An expression level of the FITC was measured at a fluorescence channel 1 (FL-1) (530 nm), with an excitation wavelength of 488 nm. Data analysis was conducted using CellQuest software (Becton Dickinson).

Test [3] deals with FGFR1 (Homo sapiens, UniProt P11362). The experiment in a line: Western blot of FGFR1 signaling pathway in gastric cancer cells SGC-7901 and MGC-803. The format is cell-based. Further details: endogenous in cells; host or cells: Hela229; NCI-H460; SGC-7901; MGC-803. As for the experimental part:
Cervical cancer cells Hela229, melanoma B16-F10, lung cancer cells NCI-H460, gastric cancer cells SGC-7901 and MGC-803 were inoculated into 6-well plates, respectively. After growing adherently overnight, the cells were pretreated with P48 for 10 min or with AZD4547/SSR for 2 h, and incubated with bFGF for 15 min or with KGF for 20 min.

Where [4] appears, read: gastric cancer cell lines, bFGF stimulation.

Chain of FGFR1B (P11362 22-822 isoform P11362-19 limits assumed): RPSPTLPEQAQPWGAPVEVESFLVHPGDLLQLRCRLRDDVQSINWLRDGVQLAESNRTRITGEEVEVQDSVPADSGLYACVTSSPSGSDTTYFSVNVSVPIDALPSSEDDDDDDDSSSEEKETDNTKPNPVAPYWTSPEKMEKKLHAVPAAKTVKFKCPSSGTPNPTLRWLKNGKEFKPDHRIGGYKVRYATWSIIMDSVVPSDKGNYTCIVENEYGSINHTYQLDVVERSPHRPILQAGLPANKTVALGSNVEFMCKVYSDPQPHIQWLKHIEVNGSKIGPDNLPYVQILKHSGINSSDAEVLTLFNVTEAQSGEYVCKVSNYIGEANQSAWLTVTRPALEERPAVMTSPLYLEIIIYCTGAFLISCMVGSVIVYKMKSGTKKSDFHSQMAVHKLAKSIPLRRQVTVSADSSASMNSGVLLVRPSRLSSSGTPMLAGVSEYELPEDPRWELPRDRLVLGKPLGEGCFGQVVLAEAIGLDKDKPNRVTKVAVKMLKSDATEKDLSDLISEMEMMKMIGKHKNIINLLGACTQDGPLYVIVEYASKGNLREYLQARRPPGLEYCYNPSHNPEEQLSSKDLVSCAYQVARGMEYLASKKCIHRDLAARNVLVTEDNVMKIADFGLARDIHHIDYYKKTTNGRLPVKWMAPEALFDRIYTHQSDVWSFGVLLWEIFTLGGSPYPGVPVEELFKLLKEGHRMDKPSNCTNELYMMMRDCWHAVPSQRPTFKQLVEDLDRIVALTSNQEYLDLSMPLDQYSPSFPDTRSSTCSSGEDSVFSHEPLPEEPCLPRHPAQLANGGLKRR
Chain of FGFR1 (Homo sapiens, UniProt P11362) (P11362 22-822): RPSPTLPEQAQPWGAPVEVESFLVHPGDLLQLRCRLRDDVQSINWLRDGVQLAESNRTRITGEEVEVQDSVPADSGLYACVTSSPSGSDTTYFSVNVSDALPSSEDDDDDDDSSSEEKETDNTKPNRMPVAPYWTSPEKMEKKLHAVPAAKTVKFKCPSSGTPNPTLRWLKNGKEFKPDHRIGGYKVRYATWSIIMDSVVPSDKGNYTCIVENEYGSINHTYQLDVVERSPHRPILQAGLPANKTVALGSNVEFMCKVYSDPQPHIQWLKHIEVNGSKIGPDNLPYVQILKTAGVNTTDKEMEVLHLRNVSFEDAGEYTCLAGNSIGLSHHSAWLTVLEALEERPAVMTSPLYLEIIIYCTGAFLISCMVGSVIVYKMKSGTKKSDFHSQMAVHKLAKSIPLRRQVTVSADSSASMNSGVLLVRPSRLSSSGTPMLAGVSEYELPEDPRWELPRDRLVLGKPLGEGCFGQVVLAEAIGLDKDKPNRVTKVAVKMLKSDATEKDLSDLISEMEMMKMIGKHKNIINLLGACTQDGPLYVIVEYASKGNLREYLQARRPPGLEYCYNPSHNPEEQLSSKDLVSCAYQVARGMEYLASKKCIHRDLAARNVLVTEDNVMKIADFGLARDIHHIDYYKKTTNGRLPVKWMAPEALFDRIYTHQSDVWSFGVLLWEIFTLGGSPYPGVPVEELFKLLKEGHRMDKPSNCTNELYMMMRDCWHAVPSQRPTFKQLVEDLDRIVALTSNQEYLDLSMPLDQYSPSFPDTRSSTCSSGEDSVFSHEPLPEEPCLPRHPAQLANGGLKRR
Chain of FGFR1 (Mus musculus, UniProt P16092) (P16092 22-822): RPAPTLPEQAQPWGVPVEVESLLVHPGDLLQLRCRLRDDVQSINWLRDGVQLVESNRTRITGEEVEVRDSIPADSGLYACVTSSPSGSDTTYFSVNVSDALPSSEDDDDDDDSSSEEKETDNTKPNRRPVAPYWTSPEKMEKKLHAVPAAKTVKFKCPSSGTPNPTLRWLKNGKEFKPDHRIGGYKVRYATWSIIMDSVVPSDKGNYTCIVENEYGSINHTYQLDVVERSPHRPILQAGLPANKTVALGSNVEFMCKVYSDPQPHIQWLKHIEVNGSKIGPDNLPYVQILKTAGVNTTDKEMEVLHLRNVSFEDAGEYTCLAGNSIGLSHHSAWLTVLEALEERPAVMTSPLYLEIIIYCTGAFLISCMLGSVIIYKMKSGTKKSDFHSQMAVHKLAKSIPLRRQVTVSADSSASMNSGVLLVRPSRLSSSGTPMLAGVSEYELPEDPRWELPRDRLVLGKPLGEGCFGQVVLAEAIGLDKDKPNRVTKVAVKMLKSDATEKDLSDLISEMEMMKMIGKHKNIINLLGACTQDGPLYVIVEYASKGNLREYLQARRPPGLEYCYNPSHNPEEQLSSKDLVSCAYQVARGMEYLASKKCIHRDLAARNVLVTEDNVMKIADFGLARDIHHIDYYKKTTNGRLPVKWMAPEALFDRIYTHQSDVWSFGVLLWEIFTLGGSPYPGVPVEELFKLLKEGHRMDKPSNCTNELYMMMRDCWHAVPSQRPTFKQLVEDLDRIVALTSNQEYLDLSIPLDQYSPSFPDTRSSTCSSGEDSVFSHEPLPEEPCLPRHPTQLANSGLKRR

For “SPPRYPGGGS-NH2 [P48, Ser-Pro-Pro-Arg-Tyr-Pro-Gly-Gly-Gly-Ser-NH2]”, in test [1] (P48 50-400 μM), the “competitive binding to FGFR1 with bFGF” value is reported as “can competitively bind to FGFR1 with basic fibroblast growth factor (bFGF)” and the “concentration dependence of binding force” value is reported as “a higher concentration leads to a stronger binding force”. Further, in test [1] (comparison of FIG. 1F and FIG. 2), the “binding degree FGFR1 versus FGFR2 and FGFR3” value is “stronger than that with FGFR2 and FGFR3”. Also, the “inhibition of FGFR1 activation induced by bFGF” value in test [2] was “can inhibit activation of FGFR1 induced by bFGF in a concentration-dependent manner”. Also, the “effect on KGF stimulation” value in test [3] (SGC-7901, KGF 20 min) is recorded as “has no effect”. Also, in test [3] (SGC-7901, aFGF 15 min), the “effect on aFGF stimulation” value is recorded as “has no effect”. In addition, the “inhibition of FGFR1 activation under bFGF stimulation” value in test [3] (SGC-7901, bFGF 15 min) was “can only inhibit the activation of FGFR1 induced by bFGF”. Also, the “inhibition of FGFR1 signaling pathway” value in test [3] (gastric cancer (SGC-7901, MGC-803), bFGF stimulation) is “can inhibit the FGFR1 signaling pathway of cervical cancer, melanoma, lung cancer and gastric cancer in a concentration-dependent manner”. For the same substance, in test [3] (setting [4]), the “activity on FGFR1 signaling compared with AZD4547” value is reported as “weaker than that of AZD4547” and the “inhibitory effect on FGFR1 signaling compared with SSR” value is reported as “comparable to that of the SSR”.
